US8309552B2, “Immunomodulating heterocyclic compounds” (Medigene AG, priority 2003, dated 2012)
Where two headings read alike, the source gives them in different places. Each block holds one molecule with its values, some of them ahead of it.

Legend:
[1] = target: T1, Biotinylated human CD80 (hCD80-BT) (Homo sapiens, UniProt P33681); test: BIAcore biomolecular interaction analysis, binding to immobilised hCD80-BT; parameters: off-rate on CD80: unit not given here; conditions: BIAcore S51, immobilised hCD80-BT
T1 construct: biotin (biotinylated)
T1 sequence (P33681 35-242 limits assumed): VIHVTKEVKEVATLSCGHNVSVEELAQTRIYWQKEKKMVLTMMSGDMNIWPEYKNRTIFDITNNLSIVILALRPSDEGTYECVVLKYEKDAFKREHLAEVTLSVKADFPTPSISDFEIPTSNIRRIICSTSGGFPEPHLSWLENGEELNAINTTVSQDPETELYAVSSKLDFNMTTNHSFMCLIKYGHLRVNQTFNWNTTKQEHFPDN
Text: The Use of BIAcore Biomolecular Interaction Analysis
Biotinylated human CD80 (hCD80-BT) is a recombinant soluble form of a membrane bound receptor molecule (CD80) which binds to CD28 to initiate T cell activation. The interaction between CD80 and CD28 has been extensively investigated (Collins et al, 2002). Biotinlyated human HLA-A2-tax is the recombinant soluble form of a membrane bound receptor molecule that has been used in this example as a control protein, and is not expected to interact with the compounds.
The BIAcore S51™ system was used for screening the compounds of Examples 1-4 above. A series S sensor chip CM5 was docked onto the BIAcore S51™. Streptavidin was coupled to the carboxymethyl surface using standard amine coupling. The chip surface was activated with 0.2M EDC/0.05M NHS, followed by binding of streptavidin (0.25 mg/ml in 10 mM sodium acetate pH 5.0) and saturation of unoccupied sites with […].
The BIAcore S51 sensor chip has two separate sensor spots for immobilisation of proteins. hCD80-BT was immobilised on the streptavidin-coated surface of one sensor spot until a response of approximately 3000 RU was observed. A protein to control for non-specific binding of the compound was immobilised on a second sensor spot. The control protein used for these experiments was a biotinylated, soluble form of the human HLA protein.
Dilution series of compounds (1000 nM-0.05 nM) were prepared in running buffer (10 mM, pH 7.4, 150 mM NaCl, 0.005% P20; 5% DMSO).
BIAcore S51™ was run at a flow rate of 30 μl/min using running buffer. Compounds and DMSO standard solutions for correction of data for solvent effects were injected. Data were recorded automatically and were analysed using BIAcore S51 Evaluation software.

CD80-CD28 interaction = target: T2, CD80-CD28 interaction (Homo sapiens, UniProt P33681); test: Homogenous Time Resolved Fluorescence (HTRF) assay, cell free; type: binding; conditions: 4 hours at room temperature
T2 sequence (P33681 35-242 limits assumed): T1 sequence (P33681 35-242 limits assumed)
Method in brief: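 In pH7.8 Tris-HCl/NaCl buffer with 0.1% BSA, a 100 μM-1.7 nM compound series was incubated for 4 h at room temperature with CD28 and CD80 fusions carrying europium and APC via linker antibodies. Time-resolved signals at 665 and 615 nm were read after 340 nm excitation; a C215 Fab swap defined background. EC50 given as banded classes.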

[2] = system: production of Interleukin-2 (IL-2) by Human Jurkat T Cells; test: Inhibition of production of interleukin-2 (IL-2) by human Jurkat T cells (Raji/Jurkat co-culture, anti-CD3, IL-2 ELISA); type: cell-based; conditions: read-out: Percentage Inhibition (relative to DMSO = 0%); for inhibition at 30 µM: Compound Concentration 30 μM; for inhibition at 10 µM: Compound Concentration 10 μM
Description: • Collins A V et al. (2002) Immunity 17, 201-210 “The interaction properties of costimulatory molecules revisited” Inhibition of Production of Interleukin-2 (IL-2) by Human Jurkat T Cells. Method
Human Raji cells were dispensed at a concentration of 2×10^5 cells per well in RPMI-1640 medium supplemented with 10% fetal calf serum, 1% penicillin/streptomycin, 1% glutamine (RPMI medium) in a 96-well round bottom microtitre plate. Compounds under investigation (dissolved in 100% DMSO) were diluted to eight-fold the desired final concentration in RPMI medium and added to the required final concentration for a total volume of 200 μl per well. After 20 minutes incubation at 37° C., Jurkat T cells were added at a concentration of 2×10^5 cells per well. Monoclonal antibody to CD3 (UCHT1, R&D Systems) was added to the cultures at a final concentration of 1 μg per ml, and where indicated, monoclonal antibody to CD28 (CD28.2, BD-Pharmingen) was also added at a concentration of 2.5 μg per ml. Cells were cultured at 37° C. for 5 hours, after which the plates were centrifuged and the supernatants harvested for IL-2 ELISA assay using the IL-2 Eli-pair kit (DIACLONE Research, Besancon, France) according to the manufacturers instructions.

[3] = inhibition of the CD80-CD28 interaction, read-out: EC50 activity in the HTRF assay
[4] = cell-free HTRF, compound concentration series 100 μM-1.7 nM, read-out: Activity (EC50 in the HTRF assay)
[5] = cell free HTRF assay, concentration series 100 μM-1.7 nM, read-out: Activity (EC50 in the HTRF assay)
[6] = cell-free HTRF, concentration series 100 μM-1.7 nM, read-out: Activity (EC50 in the HTRF assay)

- Kd [1]: < 100 nM
- off-rate on CD80 [1]: 2×10^−2
- EC50 (CD80-CD28 interaction; [3]): < 1000 nM
Structure (SMILES): O=C(NCCCNC1CCCCC1)c1ccc(-n2[nH]c3c(nnc4ccccc43)c2=O)cc1 [Example 4, N-[(cyclohexylamino)propyl]-4-(3-oxo-1,3-dihydro-2H-pyrazolo[4,3-c]cinnolin-2-yl)benzamide]

- EC50 (CD80-CD28 interaction; [4]): < 1000 nM
Structure (SMILES): CC(C)OCCCNC(=O)c1ccc(-n2[nH]c3c(nnc4ccccc43)c2=O)cc1 [Example 53]
- inhibition at 30 µM [2]: 63.8%

- EC50 (CD80-CD28 interaction; [4]): < 1000 nM
Structure (SMILES): CN1C(C)(C)CC(NC(=O)c2ccc(-n3[nH]c4c(nnc5ccccc54)c3=O)cc2)CC1(C)C [Example 68]
- inhibition at 10 µM [2]: 71.7%

- EC50 (CD80-CD28 interaction; [4]): < 1000 nM
Structure (SMILES): CCN1CCCC1CNC(=O)Nc1ccc(-n2[nH]c3c(nnc4ccccc43)c2=O)cc1 (stereo not shown) [Example 162]
- inhibition at 30 µM [2]: 54.4%

- EC50 (CD80-CD28 interaction; [5]): < 1000 nM
Structure (SMILES): O=C(NCCCN1CCOCC1)c1ccc(-n2[nH]c3c(nnc4c(F)cccc43)c2=O)cc1 [Example 350]
- inhibition at 10 µM [2]: 74.2%

- EC50 (CD80-CD28 interaction; [5]): < 1000 nM
Structure (SMILES): O=C(NCCCNC1CCCCC1)c1ccc(-n2[nH]c3c(nnc4c(F)ccc(F)c43)c2=O)cc1 [Example 429]
- inhibition at 10 µM [2]: 58.8%

- EC50 (CD80-CD28 interaction; [6]): < 1000 nM
Structure (SMILES): CCCNCCCNC(=O)c1ccc(-n2[nH]c3c(nnc4c(F)cccc43)c2=O)cc1 [Example 442]
- inhibition at 10 µM [2]: 58.9%

- EC50 (CD80-CD28 interaction; [6]): < 1000 nM
Structure (SMILES): CN(C)C1CCC(NC(=O)c2ccc(-n3[nH]c4c(nnc5c(F)cccc54)c3=O)cc2)CC1 (stereo not shown) [Example 472]
- inhibition at 10 µM [2]: 58.4%

- EC50 (CD80-CD28 interaction; [6]): < 1000 nM
Structure (SMILES): N#CCNC(=O)c1ccc(-n2[nH]c3c(nnc4c(F)cccc43)c2=O)cc1 [Example 482]
- inhibition at 10 µM [2]: 39.2%

- EC50 (CD80-CD28 interaction; [6]): < 1000 nM
Structure (SMILES): O=C(NC1CCNC1)c1ccc(-n2[nH]c3c(nnc4c(F)cccc43)c2=O)cc1 (stereo not shown) [Example 488]

- EC50 (CD80-CD28 interaction; [6]): < 1000 nM
Structure (SMILES): CN1CCCN(C(=O)c2ccc(-n3[nH]c4c(nnc5c(F)cccc54)c3=O)cc2)CC1 [Example 489]

- EC50 (CD80-CD28 interaction; [6]): < 1000 nM
Structure (SMILES): O=C(c1ccc(-n2[nH]c3c(nnc4c(F)cccc43)c2=O)cc1)N1CCCNCC1 [Example 490]

The next lines start with the molecule.

Structure (SMILES): O=C(NCc1ccccc1)c1ccc(-n2[nH]c3c(nnc4ccccc43)c2=O)cc1 [Example 3, N-benzyl-4-(3-oxo-1,3-dihydro-2H-pyrazolo[4,3-c]cinnolin-2-yl)benzamide]
- Kd [1]: < 100 nM
- off-rate on CD80 [1]: 2×10^−2
- EC50 (CD80-CD28 interaction; [3]): < 1000 nM

Structure (SMILES): O=C(NCCCCN1CCCC1)c1ccc(-n2[nH]c3c(nnc4c(F)cccc43)c2=O)cc1 [Example 6, 4-(6-fluoro-3-oxo-1,3-dihydro-2H-pyrazolo[4,3-c]cinnolin-2-yl)-N-(pyrrolidin-1-yl-butyl)benzamide]
- Kd [1]: < 100 nM
- off-rate on CD80 [1]: 2×10^−2
- EC50 (CD80-CD28 interaction; [3]): < 1000 nM

Structure (SMILES): CN1C(C)(C)CC(NC(=O)c2ccc(-n3[nH]c4c(nnc5c(F)cccc54)c3=O)cc2)CC1(C)C [Example 7, 4-(6-fluoro-3-oxo-1,3-dihydro-2H-pyrazolo[4,3-c]cinnolin-2-yl)-n-(1,2,2,6,6-pentamethylpiperidine-4-yl)benzamide]
- Kd [1]: < 100 nM
- off-rate on CD80 [1]: 2×10^−2
- EC50 (CD80-CD28 interaction; [3]): < 1000 nM

Structure (SMILES): O=C(NCCCNC1CCCCC1)c1ccc(-n2[nH]c3c(nnc4c(F)cccc43)c2=O)cc1 [Example 235]
- inhibition at 10 µM [2]: 59.3%
- EC50 (CD80-CD28 interaction; [5]): < 1000 nM

Structure (SMILES): CN1CCC(NC(=O)c2ccc(-n3[nH]c4c(nnc5c(F)cccc54)c3=O)cc2)CC1 [Example 349]
- inhibition at 10 µM [2]: 79.5%
- EC50 (CD80-CD28 interaction; [5]): < 1000 nM

Structure (SMILES): O=C(NC1CN2CCC1CC2)c1ccc(-n2[nH]c3c(nnc4c(F)cccc43)c2=O)cc1 (stereo not shown) [Example 353]
- inhibition at 10 µM [2]: 77.4%
- EC50 (CD80-CD28 interaction; [5]): < 1000 nM

Structure (SMILES): O=C(NCC(F)F)c1ccc(-n2[nH]c3c(nnc4c(F)cccc43)c2=O)cc1 [Example 376]
- inhibition at 10 µM [2]: 56.7%
- EC50 (CD80-CD28 interaction; [5]): < 1000 nM

Structure (SMILES): CCN1CCC(NC(=O)c2ccc(-n3[nH]c4c(nnc5c(F)cccc54)c3=O)cc2)CC1 [Example 453]
- inhibition at 10 µM [2]: 55.7%
- EC50 (CD80-CD28 interaction; [6]): < 1000 nM

Structure (SMILES): CN(CCCCNC(=O)c1ccc(-n2[nH]c3c(nnc4c(F)cccc43)c2=O)cc1)C(C)(C)C [Example 478]
- inhibition at 10 µM [2]: 56%
- EC50 (CD80-CD28 interaction; [6]): < 1000 nM
